# Experimental data reported in article doi:10.1101/2024.08.19.608619, “Discovery of potent SARS-CoV-2 nsp3 macrodomain inhibitors uncovers lack of translation to cellular antiviral response” (bioRxiv, 2024).
# Values joined by “and” are separate entries in the source; they are usually repeats but may differ in a detail not shown here. Identical values can stand only once. Like-named read-outs stand apart in the source and are kept apart here.
# Assays:
# [1] = In vitro mouse hepatocyte stability; assay type: in vitro ADME
# Source text: (§1) Supplement media-1.zip/Hepatocyte_Stability.csv, table | column: clint; t_half
# [2] = Hepatic microsomal stability, HLM; assay type: in vitro ADME, human; details: In vitro human liver microsomal stability; for perc_remaining_no_cofactor: no cofactor
# [3] = Permeability Papp (AB) MDR1/MDCKII; details: for papp_a_to_b_mean: A to B; for papp_b_to_a_mean: B to A; for perc_recovery_a_to_b_mean / perc_recovery_a_to_b_inhibitor_mean: recovery A to B; for perc_recovery_b_to_a_mean / perc_recovery_b_to_a_inhibitor_mean: recovery B to A; for perc_recovery_a_to_b_inhibitor_mean / perc_recovery_b_to_a_inhibitor_mean: MDR1-MDCKII
# acetylcholinesterase (h) = target: T1, acetylcholinesterase (h) (Homo sapiens, UniProt P22303); experiment: In vitro CEREP profiling, acetylcholinesterase (h); assay type: biochemical; details: test compound concentration 10 uM; Enzyme and Cell-based assays
# T1 construct: purchased Eurofins Cerep (SafetyScreen44), recognised from the panel format
# Source text: (§2) Supplement media-1.zip/Safety_Panel_Profile.csv, table | column: perc_inhibition
# CCK1 (CCKA) (h) = target: T2, CCK1 (CCKA) (h) (Homo sapiens, UniProt P32238); experiment: In vitro CEREP profiling, CCK1 (CCKA) (h) (agonist radioligand); assay type: binding; details: test compound 10 uM
# T2 construct: purchased Eurofins Cerep (SafetyScreen44), recognised from the panel format
# T2 sequence (P32238 1-428): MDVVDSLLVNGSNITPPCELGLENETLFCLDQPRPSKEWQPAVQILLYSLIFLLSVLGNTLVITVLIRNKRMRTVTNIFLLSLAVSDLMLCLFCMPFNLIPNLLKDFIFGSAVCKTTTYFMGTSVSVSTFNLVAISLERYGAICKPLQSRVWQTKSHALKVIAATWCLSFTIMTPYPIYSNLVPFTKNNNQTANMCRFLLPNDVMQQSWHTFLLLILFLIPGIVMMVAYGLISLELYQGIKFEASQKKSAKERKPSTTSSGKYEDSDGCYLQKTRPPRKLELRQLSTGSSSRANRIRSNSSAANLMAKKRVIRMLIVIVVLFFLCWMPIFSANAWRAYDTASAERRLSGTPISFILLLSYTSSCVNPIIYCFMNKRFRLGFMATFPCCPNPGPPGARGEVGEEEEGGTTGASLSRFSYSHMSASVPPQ
# Source text: as §2
# PKCα(h) = target: T3, PKCα(h) (Homo sapiens, UniProt P17252); experiment: biochemical; design: In vitro kinase panel profiling, per cent remaining kinase activity at 10 uM; details: atp_concentration=45, read-out: % of control remaining
# T3 construct: gene PRKCA
# Source text: (§3) We derisk potential for off-target activity by profiling the compound in a CEREP panel, a standard secondary pharmacology assessment, as well as a kinase panel to derisk a potential hinge-binding motif in our leads, and a PARP panel to derisk activity against human […]. Reassuringly, the compounds are selective, with the only off-targets being moderate human CHRM2 and KOR receptors activity associated with ASAP-0011198.
# SRPK1(h) = SRPK1(h) (Homo sapiens, UniProt Q96SB4); experiment: biochemical; design: In vitro kinase panel profiling, per cent remaining kinase activity at 10 uM; details: atp_concentration=10, read-out: % of control remaining
# Source text: as §3
# GSK3β(h) = target: T4, GSK3β(h) (Homo sapiens, UniProt P49841); experiment: biochemical; design: In vitro kinase panel profiling, per cent remaining kinase activity at 10 uM; details: atp_concentration=15, read-out: % of control remaining
# T4 construct: gene GSK3B
# Source text: as §3
# Mnk2(h) = target: T5, Mnk2(h) (Homo sapiens, UniProt Q9HBH9); experiment: biochemical; design: In vitro kinase panel profiling, per cent remaining kinase activity at 10 uM; details: atp_concentration=120, read-out: % of control remaining
# T5 construct: gene MKNK2
# Source text: as §3
# Lyn(h) = Lyn(h) (Homo sapiens, UniProt P07948); experiment: biochemical; design: In vitro kinase panel profiling, per cent remaining kinase activity at 10 uM; details: atp_concentration=70, read-out: % of control remaining
# Source text: as §3
# DRAK1(h) = target: T6, DRAK1(h) (Homo sapiens, UniProt Q9UEE5); experiment: biochemical; design: In vitro kinase panel profiling, per cent remaining kinase activity at 10 uM; details: atp_concentration=10, read-out: % of control remaining
# T6 construct: gene STK17A
# T6 sequence (Q9UEE5 1-414): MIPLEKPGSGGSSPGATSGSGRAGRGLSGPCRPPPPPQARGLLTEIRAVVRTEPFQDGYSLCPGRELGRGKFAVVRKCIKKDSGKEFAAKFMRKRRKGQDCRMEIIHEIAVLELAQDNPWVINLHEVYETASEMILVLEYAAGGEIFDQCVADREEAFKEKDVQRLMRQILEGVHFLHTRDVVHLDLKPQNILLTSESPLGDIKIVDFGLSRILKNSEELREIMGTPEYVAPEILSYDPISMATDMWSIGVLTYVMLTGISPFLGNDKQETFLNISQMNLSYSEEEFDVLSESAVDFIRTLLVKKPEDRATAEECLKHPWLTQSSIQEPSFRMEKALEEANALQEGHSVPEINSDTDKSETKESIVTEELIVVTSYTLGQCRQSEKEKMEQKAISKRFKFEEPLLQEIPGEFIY
# Source text: as §3
# PKCθ(h) = target: T7, PKCθ(h) (Homo sapiens, UniProt Q04759); experiment: biochemical; design: In vitro kinase panel profiling, per cent remaining kinase activity at 10 uM; details: atp_concentration=15, read-out: % of control remaining
# T7 construct: gene PRKCQ
# Source text: as §3
# Fyn(h) = Fyn(h) (Homo sapiens, UniProt P06241); experiment: biochemical; design: In vitro kinase panel profiling, per cent remaining kinase activity at 10 uM; details: atp_concentration=70, read-out: % of control remaining
# Source text: as §3
# [4] = In vitro kinetic solubility; details: In vitro kinetic solubility, ph 7.4
# [5] = In vitro dog hepatocyte stability; assay type: in vitro ADME
# Source text: as §1
# [6] = In vitro MDR1-MDCKII permeability, mean
# [7] = In vitro MDR1-MDCKII permeability, no inhibitor
# T7 sequence (Q04759 whole entry): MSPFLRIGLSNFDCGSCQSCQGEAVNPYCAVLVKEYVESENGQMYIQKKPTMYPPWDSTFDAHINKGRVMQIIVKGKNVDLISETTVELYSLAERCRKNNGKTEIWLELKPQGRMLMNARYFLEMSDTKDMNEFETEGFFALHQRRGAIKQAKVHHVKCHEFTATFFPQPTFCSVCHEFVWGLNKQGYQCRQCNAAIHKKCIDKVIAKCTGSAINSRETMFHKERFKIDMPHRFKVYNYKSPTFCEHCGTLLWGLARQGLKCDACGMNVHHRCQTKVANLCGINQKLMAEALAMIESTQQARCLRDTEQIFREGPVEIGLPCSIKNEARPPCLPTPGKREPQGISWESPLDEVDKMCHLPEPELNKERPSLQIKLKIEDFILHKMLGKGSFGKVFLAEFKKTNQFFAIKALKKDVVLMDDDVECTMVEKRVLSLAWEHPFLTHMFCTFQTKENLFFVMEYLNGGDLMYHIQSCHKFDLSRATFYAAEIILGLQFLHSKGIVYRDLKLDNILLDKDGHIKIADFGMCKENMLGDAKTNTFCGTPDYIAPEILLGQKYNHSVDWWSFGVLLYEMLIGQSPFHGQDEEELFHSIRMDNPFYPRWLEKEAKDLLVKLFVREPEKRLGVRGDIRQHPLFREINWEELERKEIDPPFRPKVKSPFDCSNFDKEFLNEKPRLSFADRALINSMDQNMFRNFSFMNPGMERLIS
# T5 sequence (Q9HBH9 whole entry): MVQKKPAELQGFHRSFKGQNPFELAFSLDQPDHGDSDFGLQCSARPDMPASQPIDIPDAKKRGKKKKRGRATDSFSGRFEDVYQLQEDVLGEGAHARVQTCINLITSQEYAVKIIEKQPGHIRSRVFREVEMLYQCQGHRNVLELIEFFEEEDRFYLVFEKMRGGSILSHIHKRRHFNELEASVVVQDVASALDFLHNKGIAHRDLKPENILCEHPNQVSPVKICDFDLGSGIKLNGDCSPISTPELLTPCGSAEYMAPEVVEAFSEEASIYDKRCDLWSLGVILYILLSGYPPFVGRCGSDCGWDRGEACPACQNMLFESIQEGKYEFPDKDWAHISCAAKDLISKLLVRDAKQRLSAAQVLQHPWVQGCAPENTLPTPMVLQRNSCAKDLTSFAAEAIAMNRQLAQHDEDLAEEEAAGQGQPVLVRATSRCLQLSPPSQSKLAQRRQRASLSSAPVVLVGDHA
# T4 sequence (P49841 whole entry): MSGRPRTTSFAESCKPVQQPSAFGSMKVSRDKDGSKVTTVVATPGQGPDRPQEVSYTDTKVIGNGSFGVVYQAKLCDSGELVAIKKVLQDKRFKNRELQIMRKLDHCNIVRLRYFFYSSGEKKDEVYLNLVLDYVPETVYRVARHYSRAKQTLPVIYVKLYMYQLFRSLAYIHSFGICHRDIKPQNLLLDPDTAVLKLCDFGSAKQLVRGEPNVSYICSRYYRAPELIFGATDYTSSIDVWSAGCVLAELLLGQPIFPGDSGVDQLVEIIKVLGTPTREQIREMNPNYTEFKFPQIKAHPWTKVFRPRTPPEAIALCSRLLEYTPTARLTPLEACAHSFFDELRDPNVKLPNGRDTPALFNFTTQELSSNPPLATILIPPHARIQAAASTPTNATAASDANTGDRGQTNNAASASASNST
# T1 sequence (P22303 32-614): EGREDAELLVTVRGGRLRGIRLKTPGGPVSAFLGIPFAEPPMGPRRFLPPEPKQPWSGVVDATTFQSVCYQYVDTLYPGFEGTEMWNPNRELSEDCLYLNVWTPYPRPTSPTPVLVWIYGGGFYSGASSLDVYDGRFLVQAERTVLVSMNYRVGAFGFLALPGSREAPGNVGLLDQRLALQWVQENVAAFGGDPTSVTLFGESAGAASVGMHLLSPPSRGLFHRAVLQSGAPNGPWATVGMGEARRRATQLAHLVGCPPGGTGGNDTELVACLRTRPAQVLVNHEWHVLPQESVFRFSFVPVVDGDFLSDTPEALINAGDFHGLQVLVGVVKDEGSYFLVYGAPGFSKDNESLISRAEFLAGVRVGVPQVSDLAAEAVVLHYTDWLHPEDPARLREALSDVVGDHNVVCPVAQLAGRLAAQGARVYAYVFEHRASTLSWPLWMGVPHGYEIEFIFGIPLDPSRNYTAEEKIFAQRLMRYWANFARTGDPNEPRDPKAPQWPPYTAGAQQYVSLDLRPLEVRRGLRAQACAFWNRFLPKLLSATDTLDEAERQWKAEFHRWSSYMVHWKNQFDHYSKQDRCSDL
# Chain of Lyn(h) (P07948 whole entry): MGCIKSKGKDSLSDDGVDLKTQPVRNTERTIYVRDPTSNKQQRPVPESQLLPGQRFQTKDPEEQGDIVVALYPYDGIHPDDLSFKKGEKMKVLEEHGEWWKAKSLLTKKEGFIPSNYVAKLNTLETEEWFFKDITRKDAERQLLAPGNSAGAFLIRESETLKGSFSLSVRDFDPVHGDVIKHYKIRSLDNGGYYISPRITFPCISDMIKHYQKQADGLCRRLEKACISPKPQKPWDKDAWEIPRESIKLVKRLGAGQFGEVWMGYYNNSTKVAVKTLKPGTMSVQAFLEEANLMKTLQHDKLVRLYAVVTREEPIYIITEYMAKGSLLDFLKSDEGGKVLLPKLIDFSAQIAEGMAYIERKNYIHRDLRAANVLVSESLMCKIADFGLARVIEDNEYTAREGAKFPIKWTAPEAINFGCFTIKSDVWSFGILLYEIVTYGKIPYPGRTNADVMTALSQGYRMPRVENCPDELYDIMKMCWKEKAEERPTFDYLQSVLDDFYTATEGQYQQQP
# Chain of Fyn(h) (P06241 whole entry): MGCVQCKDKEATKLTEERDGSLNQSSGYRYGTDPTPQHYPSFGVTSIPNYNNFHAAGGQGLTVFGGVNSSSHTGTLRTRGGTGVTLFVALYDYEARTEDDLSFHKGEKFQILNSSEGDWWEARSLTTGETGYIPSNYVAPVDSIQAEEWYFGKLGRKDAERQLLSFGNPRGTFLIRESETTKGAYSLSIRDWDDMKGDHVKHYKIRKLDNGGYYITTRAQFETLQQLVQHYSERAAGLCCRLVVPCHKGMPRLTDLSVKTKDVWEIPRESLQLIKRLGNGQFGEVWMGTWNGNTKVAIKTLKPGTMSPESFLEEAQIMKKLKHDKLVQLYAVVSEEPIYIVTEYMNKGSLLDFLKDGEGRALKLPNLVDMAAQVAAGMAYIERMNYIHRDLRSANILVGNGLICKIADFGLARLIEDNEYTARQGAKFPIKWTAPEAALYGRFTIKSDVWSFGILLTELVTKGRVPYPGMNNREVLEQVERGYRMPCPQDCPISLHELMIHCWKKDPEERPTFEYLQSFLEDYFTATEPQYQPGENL
# Chain of SRPK1(h) (Q96SB4 whole entry): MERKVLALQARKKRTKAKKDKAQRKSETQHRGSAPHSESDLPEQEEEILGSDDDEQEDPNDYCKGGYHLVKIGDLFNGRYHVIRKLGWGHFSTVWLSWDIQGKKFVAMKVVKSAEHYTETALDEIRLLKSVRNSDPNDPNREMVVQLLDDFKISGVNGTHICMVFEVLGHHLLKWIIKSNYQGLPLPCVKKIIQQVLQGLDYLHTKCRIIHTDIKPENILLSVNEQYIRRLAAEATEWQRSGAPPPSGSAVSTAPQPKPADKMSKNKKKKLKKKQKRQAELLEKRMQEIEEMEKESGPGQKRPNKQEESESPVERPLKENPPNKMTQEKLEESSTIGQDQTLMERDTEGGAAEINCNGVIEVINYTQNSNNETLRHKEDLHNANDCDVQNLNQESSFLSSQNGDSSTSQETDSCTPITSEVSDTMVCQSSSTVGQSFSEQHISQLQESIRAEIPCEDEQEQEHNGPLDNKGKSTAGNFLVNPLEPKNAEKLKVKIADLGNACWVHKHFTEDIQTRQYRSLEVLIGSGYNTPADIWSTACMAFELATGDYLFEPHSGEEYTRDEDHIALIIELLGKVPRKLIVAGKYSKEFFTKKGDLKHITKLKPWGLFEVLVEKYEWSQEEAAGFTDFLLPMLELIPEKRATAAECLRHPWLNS
Structure (SMILES),clint [1],t_half [1],clint [2],perc_remaining [2],t_half [2],perc_remaining_no_cofactor [2],"papp_b_to_a_mean [3, 7]","perc_recovery_a_to_b_mean [3, 7]","perc_recovery_b_to_a_mean [3, 7]",perc_recovery_a_to_b_inhibitor_mean ([3]; with inhibitor Cyclosporin A),perc_recovery_b_to_a_inhibitor_mean ([3]; with inhibitor Cyclosporin A),"perc_inhibition: % inhibition of control enzyme activity, acetylcholinesterase (h) (acetylcholinesterase (h))",perc_inhibition (% inhibition of the binding of a ligand specific for each target) (CCK1 (CCKA) (h)),solubility_mean [4],clint [5],t_half [5],other results
CNCc1cc(-c2cc3c(N[C@@H](c4ccc5c(c4)S(=O)(=O)CCC5)C(C)C)ncnc3[nH]2)co1 [ASAP-0011176],74.7 uL/min/1E6 cells,9.27 min,133.0 µL/min/mg,10.0%,12.6 min,95.0%,0.15 ×10⁻⁶ cm/s and 0.137 ×10⁻⁶ cm/s,64.8% and 63.4%,60.4% and 68.7%,78.6%,83.0%,10%,-24%,345 µM,7.3 uL/min/1E6 cells,94.9 min,"papp_a_to_b_mean [3, 6]: 2.61 ×10⁻⁶ cm/s; papp_a_to_b_mean [3, 7]: 0.0775 ×10⁻⁶ cm/s and 0.0947 ×10⁻⁶ cm/s; perc_recovery_a_to_b_mean [3, 6]: 78.9%; perc_recovery_a_to_b_inhibitor_mean ([3]; with inhibitor Verapamil): 67.3%; perc_recovery_b_to_a_inhibitor_mean ([3]; with inhibitor Verapamil): 62.0%; remaining activity at 10 µM (PKCα(h); batch_name=ASAP-0011176-002): 99%; remaining activity at 10 µM (SRPK1(h); batch_name=ASAP-0011176-002): 101%; remaining activity at 10 µM (GSK3β(h); batch_name=ASAP-0011176-002): 92%; remaining activity at 10 µM (Mnk2(h); batch_name=ASAP-0011176-002): 94%; remaining activity at 10 µM (Lyn(h); batch_name=ASAP-0011176-002): 47%; remaining activity at 10 µM (DRAK1(h); batch_name=ASAP-0011176-002): 86%; remaining activity at 10 µM (PKCθ(h); batch_name=ASAP-0011176-002): 106%; remaining activity at 10 µM (Fyn(h); batch_name=ASAP-0011176-002): 64%"
C[C@H](C(=O)O)[C@@H](NC(=O)c1ncnc2[nH]ccc12)c1ccc(Br)cc1 [ASAP-0014722],4.35 uL/min/1E6 cells,159.0 min,3.0 µL/min/mg,92.211%,573.861 min,101.611%,0.274 ×10⁻⁶ cm/s,89.1% and 77.4%,87.2%,80.9%,84.1%,12%,6%,358 µM,< 3.0 uL/min/1E6 cells,> 231.0 min,"efflux_ratio [3, 7]: 8.67; remaining activity at 10 µM (PKCα(h); batch_name=ASAP-0014722-002): 108%; remaining activity at 10 µM (SRPK1(h); batch_name=ASAP-0014722-002): 97%; remaining activity at 10 µM (GSK3β(h); batch_name=ASAP-0014722-002): 93%; remaining activity at 10 µM (Mnk2(h); batch_name=ASAP-0014722-002): 110%; remaining activity at 10 µM (Lyn(h); batch_name=ASAP-0014722-002): 94%; remaining activity at 10 µM (DRAK1(h); batch_name=ASAP-0014722-002): 98%; remaining activity at 10 µM (PKCθ(h); batch_name=ASAP-0014722-002): 100%; remaining activity at 10 µM (Fyn(h); batch_name=ASAP-0014722-002): 98%"
